Assay results from patent US11141407B2, “Pharmaceutical composition for preventing or treating aids comprising rhodanine derivative” (AVIXGEN INC., priority 2018, dated 2021).
Like-named read-outs stand apart in the source and are kept apart here.

What was measured:
Assay type in all cases: cell-based
[1] = tested on: NL43-derived HIV-1 carrying the GFP gene; settings: p24 ELISA after 4 days; for Actually measured virus inhibitory value (%): alone, MT4 cells
Procedure: MT4 cells (a type of T cell line) were cultured in RPMI supplemented with 10% FBS and 10% antibiotics (penicillin and streptomycin). The cells were subcultured every 2 days in a humidified incubator at 37° C. and 5% CO2 for maintenance.
All viruses used for infection are NL43-derived HIV-1 carrying the GFP gene. The viral gene is recombined with the GFP gene, so that an expression rate of GFP may represent a level of viral infection. In order to identify antiviral efficacy, MT4 cells, which are a human-derived T cell line, were used. The MT4 cells were inoculated into 48-well plates at a density of 1×10^5 cells/well and infected with HIV-1 in an amount corresponding to 0.5 ng of HIV-1 p24. Treatment with mixtures to be tested for efficacy was performed simultaneously with the infection. The mixtures were prepared by mixing AVI-CO-004 with AZT, 3TC, Tenofovir, or FTC, respectively. […] Virus supernatant was collected and cell residues were removed. Then, analysis was performed. The viral production was quantified by p24 ELISA assay.
Specifically, 100,000 MT4 cells were respectively inoculated into 48-well plates and infected with HIV-1 in an amount corresponding to 0.5 ng of HIV-1 p24. Treatment with AVI-CO-004 was performed at indicated concentrations. After 4 days, an amount of viruses produced was quantified by p24 ELISA assay.
In the present experiment, antiviral efficacy of a mixture of AVI-CO-004 and AZT was identified. First, 100,000 MT4 cells were respectively inoculated into 48-well plates and infected with HIV-1 in an amount corresponding to 0.5 ng of HIV-1 p24. Treatment with a mixture of AVI-CO-004 and AZT was performed at indicated concentrations. After 4 days, an amount of viruses produced was quantified by p24 ELISA assay.
In the present experiment, antiviral efficacy of a mixture of AVI-CO-004 and 3TC was identified. First, 100,000 MT4 cells were respectively inoculated into 48-well plates and infected with HIV-1 in an amount corresponding to 0.5 ng of HIV-1 p24. Treatment with a mixture of AVI-CO-004 and 3TC was performed at indicated concentrations. After 4 days, an amount of viruses produced was quantified by p24 ELISA assay.
In the present experiment, antiviral efficacy of a mixture of AVI-CO-004 and TFV was identified. First, 100,000 MT4 cells were respectively inoculated into 48-well plates and infected with HIV-1 in an amount corresponding to 0.5 ng of HIV-1 p24. Treatment with a mixture of AVI-CO-004 and TFV was performed at indicated concentrations. After 4 days, an amount of viruses produced was quantified by p24 ELISA assay.
In the present experiment, antiviral efficacy of a mixture of AVI-CO-004 and FTC was identified. First, 100,000 MT4 cells were respectively inoculated into 48-well plates and infected with HIV-1 in an amount corresponding to 0.5 ng of HIV-1 p24. Treatment with a mixture of AVI-CO-004 and FTC was performed at indicated concentrations. After 4 days, an amount of viruses produced was quantified by p24 ELISA assay.

[2] = tested on: NL43-derived HIV-1 carrying the GFP gene; settings: alone, MT4 cells, p24 ELISA 3 days after infection
Procedure: Specifically, MT4 cells were inoculated at 1×10^5 cells into 48-well plates and infected with HIV-1 in an amount corresponding to 1 ng of p24. All viruses used for the infection are NL43-derived HIV-1 carrying the GFP gene. Together with the infection, the cells were treated with 0.5 μM, 1 μM, 2.5 μM, or 5 μM of AVI-CO-004 alone. Three days after the infection, a level of viral proliferation was identified by GFP expression using a fluorescence microscope (A of FIG. 6). Virus supernatant was collected and cell residues were removed; and HIV-1 P24 antigen ELISA assay was performed to identify a level of viral production (B of FIG. 6).
First, MT4 cells were inoculated at 1×10^5 cells into 48-well plates and infected with HIV-1 in an amount corresponding to 1 ng of p24. Together with the infection, the cells were treated with AVI-CO-004 at 0.5 μM and 1 μM in combination with 1 nM of AZT (zidovudine) and 0.5 nM of 3TC (lamivudine) fixed as basal therapeutic agents. Three days after the infection, a level of viral proliferation was identified by GFP expression using a fluorescence microscope (A of FIG. 7). Virus supernatant was collected and cell residues were removed; and HIV-1 P24 antigen ELISA assay was performed to identify a level of viral production (B of FIG. 7).
First, MT4 cells were inoculated at 1×10^5 cells into 48-well plates and infected with HIV-1 in an amount corresponding to 1 ng of p24. Together with the infection, the cells were treated with AVI-CO-004 at 0.5 μM, 1 μM, 2.5 μM, and 5 μM in combination with 0.25 μM of TFV and 0.2 μM of FTC fixed as basal therapeutic agents. Three days after the infection, a level of viral proliferation was identified by GFP expression using a fluorescence microscope (A of FIG. 8). Virus supernatant was collected and cell residues were removed; and HIV-1 P24 antigen ELISA assay was performed to identify a level of viral production (B of FIG. 8).

[3] = tested on: NL43-derived HIV-1 carrying the GFP gene; assay: Reinfectivity of viral particles produced after treatment: healthy MT4 cells reinfected (2.5 ng p24), GFP-positive cells counted by FACS after 48 hours; settings: for Decreased reinfectivity (%): alone, reinfection of MT4 cells, FACS
Procedure: In order to identify reinfectivity of viruses produced after treatment with AVI-CO-004 alone, healthy T cells inoculated at 1×10^5 cells into 48-well plates were infected with the same amount (2.5 ng in p24) of purified viral particles produced in infection assay in Example 2. After 48 hours, a level of reinfectivity of the viral particles was identified by GFP expression using a fluorescence microscope. For quantification, GFP-positive cells re-infected with the viruses were counted using a fluorescence activated cell sorter (FACS) and indicated (A of FIG. 9), and the results were graphically represented (B of FIG. 9).
In order to compare reinfectivity of the viruses produced after treatment with AVI-CO-004 alone and after combined treatment with AVI-CO-004/AZT/3TC or AVI-CO-004/TFV/FTC, the purified viral particles produced after the combined treatment in Example 2 and a control which had not been treated with an inhibitor were quantified at the same amount (2.5 ng of p24), and used to reinfect healthy T cells.
First, healthy MT4 cells were inoculated at 1×10^5 cells into 48-well plates and infected with the same amount (2.5 ng in p24) of purified viral particles produced in infection assay in Example 2. After 48 hours, a level of reinfectivity of the viruses was identified by GFP expression using a fluorescence microscope. For quantification, GFP-positive cells re-infected with the viruses were counted using a fluorescence activated cell sorter (FACS) and indicated, and the results were graphically represented (FIGS. 10 and 11).

With `Nc1ccn([C@@H]2CS[C@H](CO)O2)c(=O)n1` [3TC, 2′-3′-dideoxy-3′-thiacytidine] the “Actually measured virus inhibitory value (%)” value ([1]; amount used 1 nM) was 25%.

For `O=C(O)CCN1C(=O)/C(=C/c2ccc(-c3ccc(Cl)cc3)o2)SC1=S` [AVI-CO-004, 3-{5-[5-(4-chloro-phenyl)-furan-2-ylmethylene]-4-oxo-2-thioxo-thiazolidin-3-yl}-propionic acid], the “Actually measured virus inhibitory value (%)” value ([2]; amount used 0.5 μM) was 14.4%, the “Actually measured virus inhibitory value (%)” value ([2]; amount used 1 μM) was 44% and the “Actually measured virus inhibitory value (%)” value ([2]; amount used 2.5 μM) was 61.2%. For the same molecule, the “Actually measured virus inhibitory value (%)” value ([2]; amount used 5 μM) was 76.3%, the “reinfectivity of viruses produced after treatment, compared with a control” value ([3]; treatment alone, reinfection of healthy cells) was “significantly decreased reinfectivity” and the “Decreased reinfectivity (%)” value ([3]; viruses produced under 0.5 μM) was 35.8%. The “Decreased reinfectivity (%)” value ([3]; viruses produced under 1 μM) was 65.3%, the “Decreased reinfectivity (%)” value ([3]; viruses produced under 2.5 μM) was 97.5% and the “Decreased reinfectivity (%)” value ([3]; viruses produced under 5 μM) was 97.5%. For the same molecule, the “Actually measured virus inhibitory value (%)” value ([1]; amount used 2.5 μM) was 12%, the “Actually measured virus inhibitory value (%)” value ([1]; amount used 5 μM) was 40% and the “antiviral effect (amount of viruses produced)” value ([1]; treatment alone at increasing concentrations, p<0.05) was “concentration-dependent antiviral effect”.

For `Cc1cn([C@H]2C[C@H](N=[N+]=[N-])[C@@H](CO)O2)c(=O)[nH]c1=O` [AZT, 3′-azido-3′-deoxythymidine], the “Actually measured virus inhibitory value (%)” value ([1]; amount used 1 nM) was 9%.

For `Nc1nc(=O)n([C@@H]2CS[C@H](CO)O2)cc1F` [FTC], the “Actually measured virus inhibitory value (%)” value ([1]; amount used 5 nM) was 19%.

With `C[C@H](Cn1cnc2c(N)ncnc21)OCP(=O)(O)O` [TFV, tenofovir] the “Actually measured virus inhibitory value (%)” value ([1]; amount used 0.25 μM) was 30%.
